Laboratory results published in article PMC8805605, “Discovery of Dimeric Arylsulfonamides as Potent ADAM8 Inhibitors” (ACS Medicinal Chemistry Letters, 2021).

Assays:
Format in all cases: biochemical
ADAM17 = target: T1, ADAM17 (Homo sapiens, UniProt P78536); assay: ADAM17 fluorometric inhibition assay; details: recombinant enzyme, mean of three independent experiments in duplicate, read-out: In vitro inhibitory activity IC50 on ADAM17
T1 construct: kind gift of Franka Scharfenberg, University of Kiel
Experimental: (§1) The newly synthesized bivalent derivatives 1–3 were then tested in vitro on human recombinant ADAM8 in comparison with JG26 by a fluorometric assay. The inhibitory activity against a panel of MMPs and ADAM10/17 was determined as well to assess their selectivity profile.
(§2) (RFU). Percent of inhibition was calculated from control reactions without the inhibitor. IC50 was determined using the formula: v i/v o = 1/(1 + [I]/ IC50), where v i is the initial velocity of substrate cleavage in the presence of the inhibitor at concentration [I] and v o is the initial velocity in the absence of the inhibitor. Results were analyzed using SoftMax Pro software (version 5.4.3, Molecular Devices, Sunnyvale, CA) and Prism Software version 5.0 (GraphPad Software, Inc., La Jolla, CA, USA).
(§3) ADAM8 and ADAM17 inhibition assays
(§4) Recombinant ADAM8 and ADAM17 (kind gift of Franka Scharfenberg, University of Kiel) were diluted in assay buffer (25 mM Tris HCl, pH 8.0. 6x10-4 % Brij, 10 mM CaCl2, 10 mM ZnCl2) to a working concentration of 250 ng and incubated with inhibitors for 45 min in a total volume of 50 µL.
(§5) The fluorescent substrate PepDAB1310 was added in a concentration of 10 µM (in a volume of 50 µL). […]

human recombinant ADAM8 = target: T2, human recombinant ADAM8 (Homo sapiens, UniProt P78325); assay: ADAM8 fluorometric inhibition assay; details: for IC50: human recombinant enzyme, fluorometric assay, mean of three independent experiments in duplicate, read-out: In vitro inhibitory activity IC50 on ADAM8
T2 construct: kind gift of Franka Scharfenberg, University of Kiel
T2 sequence (P78325 17-824): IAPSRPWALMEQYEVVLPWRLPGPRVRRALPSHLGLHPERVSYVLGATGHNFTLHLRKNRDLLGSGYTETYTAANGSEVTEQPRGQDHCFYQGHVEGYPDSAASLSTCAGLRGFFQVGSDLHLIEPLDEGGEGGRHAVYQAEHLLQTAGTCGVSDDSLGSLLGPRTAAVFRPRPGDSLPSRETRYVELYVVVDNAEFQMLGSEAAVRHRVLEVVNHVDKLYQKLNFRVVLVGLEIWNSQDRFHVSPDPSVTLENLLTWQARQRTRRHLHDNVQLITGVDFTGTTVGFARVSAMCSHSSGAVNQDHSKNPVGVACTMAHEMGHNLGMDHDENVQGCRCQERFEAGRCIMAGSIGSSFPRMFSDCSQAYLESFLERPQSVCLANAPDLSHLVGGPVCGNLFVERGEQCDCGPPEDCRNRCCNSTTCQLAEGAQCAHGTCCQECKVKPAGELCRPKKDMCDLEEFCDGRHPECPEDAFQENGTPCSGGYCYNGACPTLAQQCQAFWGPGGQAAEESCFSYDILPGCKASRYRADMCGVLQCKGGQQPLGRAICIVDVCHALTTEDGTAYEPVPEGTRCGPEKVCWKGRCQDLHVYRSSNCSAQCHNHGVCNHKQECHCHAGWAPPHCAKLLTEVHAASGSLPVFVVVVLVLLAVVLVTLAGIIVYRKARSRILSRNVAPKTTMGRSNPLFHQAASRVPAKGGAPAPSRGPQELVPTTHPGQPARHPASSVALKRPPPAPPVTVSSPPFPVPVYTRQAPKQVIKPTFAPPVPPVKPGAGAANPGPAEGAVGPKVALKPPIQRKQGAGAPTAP
Experimental: as §1, §2, §3, §4, §5

MMP-9 = target: T3, MMP-9 (Homo sapiens, UniProt P14780); assay: MMP-9 fluorometric inhibition assay; details: mean of three independent experiments in duplicate, read-out: In vitro inhibitory activity IC50 on MMP-9
T3 construct: purchased Calbiochem (Merck-Millipore)
Experimental: The newly synthesized bivalent derivatives 1–3 were then tested in vitro on human recombinant ADAM8 in comparison with JG26 by a fluorometric assay. The inhibitory activity against a panel of MMPs and ADAM10/17 was determined as well to assess their selectivity profile. […]
VI. Biological Activity on Isolated Enzymes
MMP and ADAM10 inhibition assays.
Recombinant human MMP-14 catalytic domain was a kind gift of Prof. Gillian Murphy (Department of […]
Oncology, University of Cambridge, UK). Pro-MMP-1, pro-MMP-2, and pro-MMP-9, were purchased […]
from Calbiochem (Merck-Millipore). Pro-MMP-12 and ADAM10 were purchased from R&D Systems.
Proenzymes were activated immediately prior to use with p-aminophenylmercuric acetate (APMA 2 […]
mM for 1 h at 37°C for MMP-2 and MMP-1, 1 mM for 1 h at 37°C for MMP-9). Pro-MMP-12 was […]
auto activated by incubating in the fluorometric assay buffer (FAB: Tris 50 mM, pH = 7.5, NaCl 150 […]
mM, CaCl2 10 mM, Brij 35 0.05% and DMSO 1%) for 30 h at 37°C. For assay measurements, each […]
inhibitor stock solution (DMSO, 10 mM) was further diluted in FAB at seven different concentrations.
Activated enzyme (final concentration 0.56 nM for MMP-2, 1.3 nM for MMP-9, 1.0 nM for MMP- […]
14cd, 2.0 nM for MMP-1, 2.3 nM for MMP-12 and 20 nM for ADAM10) and inhibitor solutions were […]
incubated in the assay buffer for 3 h at 25 °C. ADAM10 was incubated for 1 h at 37°C in a different […]
buffer at pH 9 (Tris 25 mM, ZnCl2 25 µM, Brij-35 0.005 %). After the addition of 200 µM solution of […]
the fluorogenic substrate Mca-Lys-Pro-Leu-Gly-Leu-Dap(Dnp)-Ala-Arg-NH2 (Bachem) for all the […]
enzymes in DMSO (final concentration 2 µM for all enzymes, 10 µM for ADAM10), the hydrolysis […]
was monitored every 10 sec. for 15 min. recording the increase in fluorescence (λ ex = 325 nm, λ em = […]
400 nm) using a Molecular Devices SpectraMax Gemini XPS plate reader. The assays were performed […]
in triplicate in a total volume of 200 μL per well in 96-well microtitre plates (Corning, black, NBS).
Control wells lack inhibitor. The MMP inhibition activity was expressed in relative fluorescent units […]
as §2, with “USA). […]” for “USA).”

T1 sequence (P78536 215-824, species assumed): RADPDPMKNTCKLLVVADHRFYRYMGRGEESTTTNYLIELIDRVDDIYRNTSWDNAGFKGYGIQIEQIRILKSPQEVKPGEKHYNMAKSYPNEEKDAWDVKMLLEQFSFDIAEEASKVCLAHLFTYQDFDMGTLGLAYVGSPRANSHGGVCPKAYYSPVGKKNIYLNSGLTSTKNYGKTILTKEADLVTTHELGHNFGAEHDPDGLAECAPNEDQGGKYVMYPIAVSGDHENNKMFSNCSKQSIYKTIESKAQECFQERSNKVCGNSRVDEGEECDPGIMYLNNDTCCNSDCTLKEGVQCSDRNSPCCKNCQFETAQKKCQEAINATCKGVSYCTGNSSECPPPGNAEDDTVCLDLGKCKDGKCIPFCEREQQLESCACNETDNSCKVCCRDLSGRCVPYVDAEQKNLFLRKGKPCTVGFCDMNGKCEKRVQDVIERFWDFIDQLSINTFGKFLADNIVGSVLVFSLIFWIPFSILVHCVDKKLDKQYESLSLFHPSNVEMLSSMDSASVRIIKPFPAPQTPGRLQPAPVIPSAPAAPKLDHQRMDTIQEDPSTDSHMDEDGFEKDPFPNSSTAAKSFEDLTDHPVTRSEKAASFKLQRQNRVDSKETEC
T3 sequence (P14780 107-707 limits assumed, species assumed): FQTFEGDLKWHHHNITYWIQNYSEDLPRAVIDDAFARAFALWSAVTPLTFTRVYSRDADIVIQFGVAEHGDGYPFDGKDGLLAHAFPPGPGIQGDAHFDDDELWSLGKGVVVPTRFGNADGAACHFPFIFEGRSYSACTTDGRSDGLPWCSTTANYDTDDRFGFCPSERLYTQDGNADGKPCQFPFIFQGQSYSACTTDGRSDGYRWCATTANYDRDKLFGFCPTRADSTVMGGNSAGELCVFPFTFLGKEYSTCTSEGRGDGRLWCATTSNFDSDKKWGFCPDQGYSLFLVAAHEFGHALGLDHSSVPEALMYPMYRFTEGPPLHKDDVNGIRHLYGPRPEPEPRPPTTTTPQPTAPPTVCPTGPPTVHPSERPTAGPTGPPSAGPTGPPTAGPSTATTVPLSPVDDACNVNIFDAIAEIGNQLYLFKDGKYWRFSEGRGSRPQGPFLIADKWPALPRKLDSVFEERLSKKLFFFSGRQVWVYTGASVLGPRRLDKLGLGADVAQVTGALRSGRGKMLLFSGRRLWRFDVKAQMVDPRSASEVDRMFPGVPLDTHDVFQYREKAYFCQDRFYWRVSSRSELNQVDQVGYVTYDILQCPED

Row | Times less active than compound 1 on ADAM8 (human recombinant ADAM8; ratio of ADAM8 IC50 values) [times] | Selectivity for ADAM8 over ADAM10 (human recombinant ADAM8; ratio of IC50 values ADAM10/ADAM8) [fold] | SMILES | IC50 (ADAM17) [nM] | IC50 (human recombinant ADAM8) [nM] | IC50 (MMP-9) [µM]
1 | – | – | NC(=O)NCCC[C@@H](NS(=O)(=O)c1ccc(OCc2cc(Br)cc(Br)c2)cc1)C(=O)NO [JG26, reference compound] | 1.9 | 12 | 1.63
2 | – | – | O=C(NCCC[C@@H](NS(=O)(=O)c1ccc(OCc2cc(Br)cc(Br)c2)cc1)C(=O)NO)c1cccc(C(=O)NCCC[C@@H](NS(=O)(=O)c2ccc(OCc3cc(Br)cc(Br)c3)cc2)C(=O)NO)c1 [Compound 2] | 24 | 73 | 8.8
3 | 14 | – | O=C(NCCC[C@@H](NS(=O)(=O)c1ccc(OCc2cc(Br)cc(Br)c2)cc1)C(=O)NO)NCCC[C@@H](NS(=O)(=O)c1ccc(OCc2cc(Br)cc(Br)c2)cc1)C(=O)NO [Compound 3] | 55 | 567 | 13.5
4 | – | 740 | O=C(CCCNC(=O)c1cccc(C(=O)NCCCC(=O)NCCC[C@@H](NS(=O)(=O)c2ccc(OCc3cc(Br)cc(Br)c3)cc2)C(=O)NO)c1)NCCC[C@@H](NS(=O)(=O)c1ccc(OCc2cc(Br)cc(Br)c2)cc1)C(=O)NO [Compound 1] | 52 | 41 | 3.32
